Experimental data taken from US11020374B2, “Sulcardine salts” (HUYA Bioscience International, LLC, priority 2019, dated 2021).
Several values for one entry are separate records, joined by “and”; a condition that tells them apart may be missing. Equal entries are not always repeated. Structures can show the parent of a compound that is named as a salt.

Assays:
[1] = Sulcardine salts PK analysis, oral capsule administration; format: in vivo; conditions: single oral capsule administration, fasted male Beagle dogs
Description: The pharmacokinetic objective of this study was to assess the exposure to sulcardine following oral capsule administration or intravenous (IV) infusion of sulcardine sulfate salt, sulcardine naphthoate salt, or sulcardine mono-edisylate salt (Form II) to male dogs during a pharmacokinetic study.
Non-naïve Beagle Dogs were fasted. Dosing formulations (oral [PO] capsule and intravenous [IV] infusion) were prepared on the day prior to dosing. The IV formulations were made in 10 mM Glycine (pH adjusted to 3.0±0.1), 3% Mannitol, qs in Sterile Water for Injection, USP were filtered through a 0.22 μm PVDF filter and stirred for at least 30 minutes prior to dosing. The capsule doses were encapsulated as active pharmaceutical ingredient powder into the appropriate number of […] gelatin capsules on the day prior to dosing.
Oral dosing was once on Day 1 by oral capsule administration; IV dosing was once on Day 1 by IV infusion over approximately 45 minutes (±2 minutes).
The blood samples for animals dosed orally were collected at 0.5, 1, 2, 3, 5, 8, 12, 18, 24, and 36 hours postdose. The blood samples for animals dosed IV were collected at approximately 0.33, 0.75 (end of infusion), 1.5, 3, 6, 9, 12, 18, and 24 hours post the start of infusion.
The blood samples were centrifuged under refrigerated (2° C. to 8° C.) conditions at 3,200 RPM for 10 minutes and the resulting plasma was divided into two aliquots (150 μL and remaining) then frozen and shipped for bioanalysis. Plasma samples were analyzed for concentrations of sulcardine by Citoxlab North America, Laval, Québec, Canada.
Individual sulcardine plasma concentration time profiles from sulcardine sulfate salt, sulcardine mono-edisylate salt, or sulcardine naphthoate salt treated animals were analyzed using model-independent methods (Gibaldi M, Perrier D. Pharmacokinetics. 2nd ed. New York: Marcel Dekker, Inc., 1982:409-17). Pharmacokinetic parameters were obtained/calculated for each animal on Day 1.

[2] = Solubility in 20 mM buffers (Example 3), slurried ca. 72 hr, HPLC concentration; format: physicochemical; conditions: pH 1.2
Description: 20 mM buffers were prepared to pH 1.2 (HCl/KCl), pH 3.0 (HCl/glycine), pH 4.0 (citric acid/sodium citrate) and pH 7.4 (potassium phosphate monobasic/NaOH). To 0.5 mL of each buffer, the appropriate salt was added to form a slurry. The pH of the slurry was measured and adjusted back to the desired pH (i.e., the initial pH of the buffer) if necessary using 0.2 M buffer components (e.g. 0.2 M HCl(aq)). […] After this time, if solid remained, the pH was again adjusted back to the desired pH if necessary using 0.2 M buffer components. If no solid remained, additional solid was added to reform the slurry before the pH was again adjusted back to the desired pH if necessary using 0.2 M buffer components. All samples were then slurried for a further 2 hr before being analysed by HPLC for concentration.

[3] = Dynamic vapor sorption (DVS) experiment; format: physicochemical; conditions: for crystalline form of the salt before the DVS experiment and afterwards: XRPD form before vs after DVS; for uptake of water (DVS): at 90% RH
[4] = One-week stability studies (40° C./75% RH, 80° C., ambient light) by XRPD and HPLC; format: physicochemical; conditions: for HPLC purity after stability experiment: 99% before; for stability by XRPD / appearance: one week at 80° C. and ambient humidity
Description: For all of the stability studies provided herein under the condition of 40° C. and 75% RH, samples were in an uncapped vial and stored in a stability chamber set to 40° C./75% RH. For the 80° C. studies, samples were in a sealed vial and placed in an oven set to 80° C. For the ambient light studies, the samples were in a sealed vial placed on a windowsill in the lab which was exposed to ambient natural and artificial light.

[5] = GVS (gravimetric vapor sorption) with post-GVS XRPD; format: physicochemical; conditions: 40-90-0-40% RH, 25° C., two cycles
Description: Form II was first observed during the GVS characterization of Form I. The material collected post-GVS analysis of Form I was analyzed by XRPD. […] The XRPD reference is “LNB15318-53-1-PostGVS” in FIG. 34.
Approximately 26 mg of Form I was placed into a mesh vapor sorption balance pan and loaded into an IGASorp Moisture Sorption Analyser balance by Hiden Analytical. The sample was subjected to a ramping profile from 40-90% relative humidity (RH) at 10% increments, maintaining the sample at each step until a stable weight had been achieved (98% step completion, minimum step length 30 minutes, maximum step length 60 minutes) at 25° C. After completion of the sorption cycle, the sample was dried using the same procedure to 0% RH, and finally taken back to the starting point of 40% RH. Two cycles were performed. The weight change during the sorption/desorption cycles were plotted, allowing for the hygroscopic nature of the sample to be determined. The material collected post-GVS analysis was analyzed by XRPD.

[6] = cited from earlier work; for pKa 1: first pKa
[7] = increase in relative humidity (RH) from about 10% to about 90%
[8] = one week at 40° C. and 75% RH, uncapped vial
[9] = one week under ambient light conditions, sealed vial
[10] = one week under ambient light conditions

With `COc1ccc(NS(=O)(=O)c2cc(CN3CCCC3)c(O)c(CN3CCCC3)c2)cc1.O=S(=O)(O)CCS(=O)(=O)O` [Example 18, mono-ethane-1,2-disulfonic acid salt of sulcardine] the “Cmax of sulcardine in plasma” value ([1]; group average) was 4570 ng/mL and the “Tmax (median peak sulcardine plasma concentration)” value ([1]; median) was 0.5 h.
In the case of `COc1ccc(NS(=O)(=O)c2cc(CN3CCCC3)c(O)c(CN3CCCC3)c2)cc1.O=C(O)c1ccc2ccccc2c1O` [Example 8, 1-hydroxy-2-naphthoic acid salt of sulcardine], the “Crystallinity of the material in the solubility experiment” value [2] is reported as “loses crystallinity” and the mass increase [3, 7] is reported as “about 0.7%”.
In the case of `COc1ccc(NS(=O)(=O)c2cc(CN3CCCC3)c(O)c(CN3CCCC3)c2)cc1.O=S(=O)(O)c1ccc2ccccc2c1` [Example 10, naphthalene-2-sulfonic acid salt of sulcardine], the “stability by XRPD” value [4, 8] is reported as “unchanged”, the “HPLC purity after stability experiment” value ([4]; one week at 40° C. and 75% RH) is reported as 99% and 98% and the “stability by XRPD / appearance” value ([4]; sealed vial) is reported as “changed into an orange gel”. The “stability by XRPD / appearance” value ([4]; sealed vial, listed as Example 9) was “unchanged”, the “HPLC purity after stability experiment” value ([4]; one week at 80° C.) was 90% and the “HPLC purity after stability experiment” value ([4]; one week at 80° C., listed as Example 9) was 99%. For the same compound, the “stability by XRPD” value [4, 9] was “unchanged by XRPD but had turned pale yellow”, the “stability by XRPD” value ([4]; one week under ambient light conditions, sealed vial, listed as Example 9) was “unchanged” and the “HPLC purity after stability experiment” value [4, 10] was 99% and 97%.
For `COc1ccc(NS(=O)(=O)c2cc(CN3CCCC3)c(O)c(CN3CCCC3)c2)cc1.COc1ccc(NS(=O)(=O)c2cc(CN3CCCC3)c(O)c(CN3CCCC3)c2)cc1.O=S(=O)(O)CCS(=O)(=O)O` [Example 14, hemi-ethane-1,2-disulfonic acid salt of sulcardine], the “crystalline form of the salt before the DVS experiment and afterwards” value (from here on “crystalline form”) [3] was “the same”, the “uptake of water (DVS)” value [3] was “about 0.5%” and the mass increase [3, 7] was “about 0.5%”. The “stability by XRPD” value [4, 8] was “unchanged”, the “HPLC purity after stability experiment” value ([4]; one week at 40° C. and 75% RH) was 98% and the “stability by XRPD / appearance” value ([4]; sealed vial) was “unchanged”. For the same compound, the “HPLC purity after stability experiment” value ([4]; one week at 80° C.) was 97%, the “stability by XRPD” value [4, 9] was “unchanged” and the “HPLC purity after stability experiment” value [4, 10] was 97%.
For `COc1ccc(NS(=O)(=O)c2cc(CN3CCCC3)c(O)c(CN3CCCC3)c2)cc1.O=S(=O)(O)CCS(=O)(=O)O` [Example 17, mono-ethane-1,2-disulfonic acid salt of sulcardine], the “XRPD of material collected post-GVS analysis” value [5] was “A new pattern (denoted Form II) was observed”.
For `COc1ccc(S(=O)(=O)NCc2cc(CN3CCCC3)c(O)c(CN3CCCC3)c2)cc1` [Example 12, sulcardine hydrochloride], the “crystalline form” value [3] was “the same”, the “uptake of water (DVS)” value [3] was “about 2.2%” and the mass increase [3, 7] was “about 2.2%”. The “stability by XRPD” value [4, 8] was “unchanged”, the “HPLC purity after stability experiment” value ([4]; one week at 40° C. and 75% RH) was 98% and the “stability by XRPD / appearance” value ([4]; sealed vial) was “changed into an orange gel”. The “HPLC purity after stability experiment” value ([4]; one week at 80° C.) was 90%, the “stability by XRPD” value [4, 9] was “unchanged” and the “HPLC purity after stability experiment” value [4, 10] was 99%.
For `O=S(=O)(O)CCS(=O)(=O)O` [1,2-Ethanedisulfonic acid], the “pKa 1” value [6] is given as −2.06.
For `COc1ccc(NS(=O)(=O)c2cc(CN3CCCC3)c(O)c(CN3CCCC3)c2)cc1.O=S(=O)(O)c1cccc2c(S(=O)(=O)O)cccc12` [Example 5, naphthalene-1,5-disulfonic acid salt of sulcardine], the “crystalline form” value [3] was “the same”, the “uptake of water (DVS)” value [3] was “about 3.3%” and the mass increase ([3]; increase in relative humidity (RH) from about 5% to about 95%) was “about 3.3%”. The “stability by XRPD” value [4, 8] was “unchanged”, the “HPLC purity after stability experiment” value ([4]; one week at 40° C. and 75% RH) was 99% and the “stability by XRPD / appearance” value ([4]; sealed vial) was “unchanged”. For the same compound, the “HPLC purity after stability experiment” value ([4]; one week at 80° C.) was 99%, the “stability by XRPD” value [4, 9] was “unchanged” and the “HPLC purity after stability experiment” value [4, 10] was 99%.
For `COc1ccc(S(=O)(=O)NCc2cc(CN3CCCC3)c(O)c(CN3CCCC3)c2)cc1` [Sulcardine free base comparator, 4-methoxy-N-(3,5-bis-(1-pyrrolidinylmethyl)-4-hydroxybenzyl)benzene sulfonamide], the “pKa 1” value [6] is listed as 6.00, the “pKa 2” value ([6]; second pKa) is listed as 10.57 and the “pKa 3” value ([6]; third pKa) is listed as 11.65.
Compound `COc1ccc(S(=O)(=O)NCc2cc(CN3CCCC3)c(O)c(CN3CCCC3)c2)cc1` [sulfate salt, Sulcardine sulfate, reference compound] has a Cmax ([1]; dog, plasma, group average) of 2820 ng/mL and a Tmax ([1]; dog, plasma, median, read-out: Tmax (median peak sulcardine plasma concentration)) of 2 h.
